Legend:
[1] = human
[2] = Presence of at least one case with successful reintroduction. [column 'REINT' in source]; details: human
[3] = human; remark: listed apart in the source
[4] = human; remark: listed apart in the source
[5] = human, serum
[6] = Highest frequency of acute liver toxicity observed during clinical trials, expressed as a percentage. [column '% AIGUE' in source]; details: human
[7] = human; remark: listed apart in the source
[8] = human; remark: listed apart in the source
[9] = human; remark: listed apart in the source
[10] = Highest frequency of moderate liver toxicity observed during clinical trials, expressed as a percentage. [column '% BIOL' in source]; details: human
[11] = Times to onset, minimal and maximal, observed in the indexed observations. [column 'DELAI' in source]; details: human
[12] = human, serum, 4383 h
[13] = human; remark: listed apart in the source
[14] = human; remark: listed apart in the source
[15] = human, serum; remark: listed apart in the source
[16] = human; remark: listed apart in the source
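Wherever Hepatotoxicity (association with vascular disease) is given: count of indexed literature references reporting vascular liver injury in humans, e.g. peliosis hepatitis, hepatic veno-occlusive disease or Budd-Chiari syndrome.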
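Wherever Hepatotoxicity (benign tumour) is given: value is a count of indexed literature references citing a benign tumour confirmed by histopathology.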
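Wherever Hepatotoxicity (choleostasis) is given: human cholestatic liver injury, shown by histopathology or by peak ALT or AST elevation over alkaline phosphatase ratio below 2, value counts indexed literature reports.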
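Wherever Hepatotoxicity (chronic liver disease) is given: chronic liver injury confirmed by histopathology or persistently raised serum aminotransferase activity beyond 6 months, value given as the count of indexed literature references.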
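Wherever Hepatotoxicity (cirrhosis) is given: value is a count of indexed literature references reporting cirrhosis confirmed by histopathology.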
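Wherever Hepatotoxicity (cytolytic) is given: human cytolytic liver injury, shown by histopathology or by a ratio above 5 of peak ALT or AST elevation to alkaline phosphatase elevation, value counts indexed references.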
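Wherever Hepatotoxicity (granulomatous hepatitis) is given: value is a count of indexed literature references reporting granulomatous liver disease confirmed by histopathology.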
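Wherever Hepatotoxicity (malignant tumour) is given: malignant tumour confirmed by histopathology, value gives the count of indexed literature references reporting it.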
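Wherever Hepatotoxicity (severe hepatitis) is given: human clinical data: severe hepatitis, meaning potentially life-threatening liver failure or clinically observed cases, the value counts how many indexed literature references report it.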
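Wherever Hepatotoxicity (steatosis) is given: steatosis confirmed by histopathology, value is the count of indexed references.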

Compound	Hepatotoxicity (severe hepatitis) [1]	Hepatotoxicity (successful reintroduction) [2]	Hepatotoxicity (association with vascular disease) [3]	Hepatotoxicity (benign tumour) [4]	Hepatotoxicity (acute) [5]	Hepatotoxicity (acute) [6]	Hepatotoxicity (choleostasis) [7]	Hepatotoxicity (cirrhosis) [8]	Hepatotoxicity (granulomatous hepatitis) [9]	Hepatotoxicity (moderate) [10]	Hepatotoxicity (time to onset) [11]	Hepatotoxicity (chronic liver disease) [12]	Hepatotoxicity (steatosis) [13]	Hepatotoxicity (malignant tumour) [14]	Hepatotoxicity (moderate) [15]	Hepatotoxicity (cytolytic) [16]	other results
O=c1cc[nH]c(=S)[nH]1 [THIOURACIL]	1	yes	0	0	5	5.9%	1	0	0	0%	1 day - 3 weeks	0	0	0	0	1	
Nc1cc(-c2ccncc2)c[nH]c1=O [INAMRINONE]	0	yes	0	0	6	0%	2	0	0	33%	1 week - 3 weeks	0	0	0	9	2	
C[C@@H]1O[C@@H]1P(=O)(O)O [FOSFOMYCIN]	0	yes	0	0	1	0%	0	0	0	23.8%	3 days - 4 days	0	0	0	8	1	
N[C@@H](Cc1ccc(N(CCCl)CCCl)cc1)C(=O)O	0	yes	2	0	2	0%	1	0	0	8%	6 days - 7 weeks	0	0	0	1	0	
PENTOSAN POLYSULFATE SODIUM	0	yes	0	0	1	0%	0	0	0	75%	1 week - 2 weeks	0	0	0	5	1	
Cc1nccn1CC1CCc2c(c3ccccc3n2C)C1=O (stereo not given) [ONDANSETRON]	0	yes	0	0	1	0%	0	0	0	33%	8 days - 9 days	0	0	0	23	0	
Cc1c(OCC(F)(F)F)ccnc1C[S+]([O-])c1nc2ccccc2[nH]1 (stereo not given) [LANSOPRAZOLE]	1	yes	0	0	4	0%	1	0	0	10.5%	13 days - 5 weeks	0	0	0	7	3	
CCC1(c2ccc(N)cc2)CCC(=O)NC1=O (stereo not given) [AMINOGLUTETHIMIDE]	0	yes	0	0	4	0%	3	0	0	67%	1 day - 10 weeks	0	0	0	4	2	
CC[C@]1(O)CC[C@H]2[C@@H]3CCC4=CC(=O)CC[C@@H]4[C@H]3CC[C@@]21C [NORETHANDROLONE]	2	yes	3	2	11	0%	6	0	0	24%	2 weeks - 4.5 years	0	0	1	3	0	
Nc1nc(N)c2nc(-c3ccccc3)c(N)nc2n1	1	yes	0	0	1	0%	0	0	0	0%	2 days - 3 weeks	0	0	0	1	1	
COc1cc(Cc2cnc(N)nc2N)cc(OC)c1OC [TRIMETHOPRIM]		yes	0	0				0			5 days - 24 days	0	0	0	1		Hepatotoxicity (severe hepatitis) ([1]; Liver): 1; Hepatotoxicity (acute) ([6]; Liver): 0%; Hepatotoxicity (choleostasis) ([7]; Liver): 5; Hepatotoxicity (granulomatous hepatitis) ([9]; Liver): 0; Hepatotoxicity (moderate) ([10]; Liver): 5.9%; Hepatotoxicity (cytolytic) ([16]; Liver): 2
COc1c2occc2cc2ccc(=O)oc12 [METHOXSALEN]		yes	0	0			0	0	0		2 hours - 5 months	0	0	0	1	3	Hepatotoxicity (severe hepatitis) ([1]; Liver): 1; Hepatotoxicity (acute) ([6]; Liver): 0%; Hepatotoxicity (moderate) ([10]; Liver): 0%
CNC1=Nc2ccc(Cl)cc2C(c2ccccc2)=[N+]([O-])C1 [CHLORDIAZEPOXIDE]	0	yes	0	0		0%	3	0	0	11%	2 days - 3 years	0	0	0	3	1	
CN1CCN(C(c2ccccc2)c2ccccc2)CC1 [CYCLIZINE]	0	yes	0	0	1	0%	0	0	0	0%		0	0	0	0	0	

Reference: ChEMBL document CHEMBL3137667, “[Drug-induced liver injury; fourteenth updated edition of the bibliographic database of liver injuries and related drugs]” (Gastroenterol Clin Biol, 2004)
